From ChEMBL document CHEMBL4376847, “Aryl Trehalose Derivatives as Vaccine Adjuvants for Mycobacterium tuberculosis” (J Med Chem, 2020)
Calls of active or inactive are those of the source. No cut-off for these calls is given here.

Columns and labels:
[1] = biological target: T1, C-type lectin domain family 4 member E (Homo sapiens) (UniProt Q9ULY5); assay: Agonist activity at Mincle in human PBMC assessed as increase in TNF-alpha production at 1 to 1000 uM incubated for 18 to 24 hrs by ELISA
T1 sequence (whole entry): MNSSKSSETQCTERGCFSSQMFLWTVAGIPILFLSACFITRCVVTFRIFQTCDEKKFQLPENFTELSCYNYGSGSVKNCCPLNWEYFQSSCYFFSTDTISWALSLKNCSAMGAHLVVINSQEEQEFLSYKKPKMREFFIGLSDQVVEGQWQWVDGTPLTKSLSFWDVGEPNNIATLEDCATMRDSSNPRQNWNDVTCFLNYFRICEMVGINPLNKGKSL

[2] = biological target: T1, C-type lectin domain family 4 member E (Homo sapiens); assay: Agonist activity at Mincle in human PBMC assessed as increase in IL-6 secretion at 0.1 to 100 uM incubated for 18 to 24 hrs by luminex multiplex assay
[3] = biological target: T1, C-type lectin domain family 4 member E (Homo sapiens); assay: Agonist activity at Mincle in human PBMC assessed as increase in IL-1beta secretion at 0.1 to 100 uM incubated for 18 to 24 hrs by luminex multiplex assay
[4] = biological target: T1, C-type lectin domain family 4 member E (Homo sapiens); assay: Agonist activity at Mincle in human PBMC assessed as increase in IL-23 at 0.1 to 100 uM incubated for 18 to 24 hrs by luminex multiplex assay
[5] = biological target: T1, C-type lectin domain family 4 member E (Homo sapiens); assay: Agonist activity at Mincle in human PBMC assessed as increase in TNF-alpha level at 0.1 to 100 uM incubated for 18 to 24 hrs by luminex multiplex assay
[6] = biological target: T2, C-type lectin domain family 4 member E (Mus musculus) (UniProt Q9R0Q8); assay: Agonist activity at Mincle in mouse RAW264.7 cells assessed as TNF-alpha secretion at 0.1 to 100 uM incubated for 18 to 24 hrs by ELISA; assay type: cell-based
T2 sequence (whole entry): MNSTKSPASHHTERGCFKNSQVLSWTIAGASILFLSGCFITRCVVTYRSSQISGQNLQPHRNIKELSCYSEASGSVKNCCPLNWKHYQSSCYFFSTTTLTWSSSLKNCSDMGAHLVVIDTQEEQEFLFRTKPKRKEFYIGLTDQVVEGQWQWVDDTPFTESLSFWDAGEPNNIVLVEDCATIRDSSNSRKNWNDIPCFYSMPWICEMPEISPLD

[7] = biological target: T2, C-type lectin domain family 4 member E (Mus musculus); assay: Agonist activity at Mincle in mouse RAW264.7 cells assessed as IL-6 production at 0.1 to 100 uM incubated for 18 to 24 hrs by ELISA; assay type: cell-based
[8] = biological target: T1, C-type lectin domain family 4 member E (Homo sapiens); assay: Agonist activity at Mincle in human PBMC assessed as TNF-alpha secretion at 0.1 to 100 uM incubated for 18 to 24 hrs by ELISA
[9] = biological target: T1, C-type lectin domain family 4 member E (Homo sapiens); assay: Agonist activity at human Mincle receptor expressed in human HEK cells assessed as NF-kappaB activation incubated for 24 hrs by SEAP reporter gene assay; assay type: cell-based
[10] = biological target: T2, C-type lectin domain family 4 member E (Mus musculus); assay: Agonist activity at mouse Mincle receptor expressed in human HEK cells assessed as NF-kappaB activation incubated for 24 hrs by SEAP reporter gene assay; assay type: cell-based
Mus musculus [11] = assay: Immuno-adjuvant activity in M72-immunized BALB/c mouse assessed as potentiation of antibody response to M72 by measuring serum anti-M72 IgG level at 10 nmol, im administered immediately and day 14 and measured after 14 days by ELISA; assay type: functional, organism-based
Mus musculus [12] = assay: Immuno-adjuvant activity in M72-immunized BALB/c mouse assessed as potentiation of antibody response to M72 by measuring serum anti-M72 IgG1 level at 10 nmol, im administered immediately and 14 and measured after 14 days by ELISA; assay type: functional, organism-based
Mus musculus [13] = assay: Immuno-adjuvant activity in M72-immunized BALB/c mouse assessed as potentiation of antibody response to M72 by measuring serum anti-M72 IgG2a level at 10 nmol, im administered immediately and 14 and measured after 14 days by ELISA; assay type: functional, organism-based
Mus musculus [14] = assay: Immuno-adjuvant activity in M72-immunized BALB/c mouse assessed as potentiation of antibody response to M72 by measuring CD4+ IL-17A T-cells at 2 to 50 nmol, im administered immediately and 14 and measured after 5 days by immuno staining based flow cytometry; assay type: functional, organism-based
Mus musculus [15] = assay: Immuno-adjuvant activity in M72-immunized BALB/c mouse assessed as potentiation of antibody response to M72 by measuring IFNgamma at 2 to 50 nmol, im administered immediately and 14 and measured after 5 days by immuno staining based flow cytometry; assay type: functional, organism-based
Mus musculus [16] = assay: Immuno-adjuvant activity in M72-immunized BALB/c mouse assessed as potentiation of antibody response to M72 by measuring IL-5 at 2 to 50 nmol, im administered immediately and 14 and measured after 5 days by immuno staining based flow cytometry; assay type: functional, organism-based
Mus musculus [17] = assay: Immuno-adjuvant activity in B42-immunized BALB/c mouse assessed as potentiation of antibody response to B42 by measuring CD4+ IL-17A T-cells at 2 to 50 nmol, im administered immediately and 14 and measured after 5 days by immuno staining based flow cytometry; assay type: functional, organism-based

Row | Structure (SMILES) | Activity [1] | Activity [2] | Activity [3] | Activity [4] | Activity [5] | Activity [6] | Activity [7] | Activity [8] | also measured
1 | COc1cc(/C=C/C(=O)OC[C@H]2O[C@H](O[C@H]3O[C@H](COC(=O)/C=C/c4cc(OC)c(OC)c(OC)c4)[C@@H](O)[C@H](O)[C@H]3O)[C@H](O)[C@@H](O)[C@@H]2O)cc(OC)c1OC | Active | Active | Active | Active | Active | – | – | – | –
2 | COc1cc(C)c(C(=O)OC[C@H]2O[C@H](O[C@H]3O[C@H](COC(=O)c4c(C)cc(OC)cc4OC)[C@@H](O)[C@H](O)[C@H]3O)[C@H](O)[C@@H](O)[C@@H]2O)c(OC)c1 | Active | Active | Active | Active | Active | – | – | – | –
3 | CC(C)(C)c1cc(C(=O)OC[C@H]2O[C@H](O[C@H]3O[C@H](COC(=O)c4cc(C(C)(C)C)c(O)c(C(C)(C)C)c4)[C@@H](O)[C@H](O)[C@H]3O)[C@H](O)[C@@H](O)[C@@H]2O)cc(C(C)(C)C)c1O | – | – | – | – | – | Active | inactive | Active | –
4 | CC(C)(C)c1cc(C(C)(C)C)c(O)c(C(=O)OC[C@H]2O[C@H](O[C@H]3O[C@H](COC(=O)c4c(O)c(C(C)(C)C)cc(C(C)(C)C)c4O)[C@@H](O)[C@H](O)[C@H]3O)[C@H](O)[C@@H](O)[C@@H]2O)c1O | – | – | – | – | – | Active | inactive | Active | –
5 | CC(C)(C)c1cc(C(=O)OC[C@H]2O[C@H](O[C@H]3O[C@H](COC(=O)c4cc(C(C)(C)C)cc(C(C)(C)C)c4O)[C@@H](O)[C@H](O)[C@H]3O)[C@H](O)[C@@H](O)[C@@H]2O)c(O)c(C(C)(C)C)c1 | Active | Active | Active | Active | Active | – | – | – | Activity [9]: Dose-dependent effect; Activity [10]: Dose-dependent effect; Activity (Mus musculus [11]): inactive; Activity (Mus musculus [12]): inactive; Activity (Mus musculus [13]): Active; Activity (Mus musculus [14]): Active; Activity (Mus musculus [15]): inactive; Activity (Mus musculus [16]): inactive
6 | CCCCCCCC(CCCCCCC)C(=O)OC[C@H]1O[C@H](O[C@H]2O[C@H](COC(=O)C(CCCCCCC)CCCCCCC)[C@@H](O)[C@H](O)[C@H]2O)[C@H](O)[C@@H](O)[C@@H]1O | – | – | – | – | – | – | – | – | Activity (Mus musculus [11]): Active; Activity (Mus musculus [12]): Active; Activity (Mus musculus [13]): Active
7 | CCCCCCCCCCCCCCCCCCCCCCC(C(=O)OC[C@H]1O[C@H](O[C@H]2O[C@H](COC(=O)C(CCCCCCCCCCCCCCCCCCCCCC)C(O)CCCCCCCCCCCCCCCCCC3CC3CCCCCCCCCCCCCCC3CC3CCCCCCCCCCCCCCCCCC)[C@@H](O)[C@H](O)[C@H]2O)[C@H](O)[C@@H](O)[C@@H]1O)C(O)CCCCCCCCCCCCCCCCCC1CC1CCCCCCCCCCCCCCC1CC1CCCCCCCCCCCCCCCCCC (some centres not stated) | – | – | – | – | – | – | – | – | Activity [9]: inactive; Activity [10]: inactive
8 | CC(C)(C)c1ccc(O)c(C(=O)OC[C@H]2O[C@H](O[C@H]3O[C@H](COC(=O)c4cc(C(C)(C)C)ccc4O)[C@@H](O)[C@H](O)[C@H]3O)[C@H](O)[C@@H](O)[C@@H]2O)c1 | – | – | – | – | – | Active | inactive | Active | –
9 | COc1ccc(/C=C/C(=O)OC[C@H]2O[C@H](O[C@H]3O[C@H](COC(=O)/C=C/c4ccc(OC)c(OC)c4)[C@@H](O)[C@H](O)[C@H]3O)[C@H](O)[C@@H](O)[C@@H]2O)cc1OC | Active | Active | Active | Active | Active | – | – | – | –
10 | CCCCCCCCCCCCCCCCCCCCCC(=O)OC[C@H]1O[C@H](O[C@H]2O[C@H](COC(=O)CCCCCCCCCCCCCCCCCCCCC)[C@@H](O)[C@H](O)[C@H]2O)[C@H](O)[C@@H](O)[C@@H]1O | – | – | – | – | – | – | – | – | Activity [9]: inactive; Activity [10]: inactive; Activity (Mus musculus [13]): Active; Activity (Mus musculus [14]): Active; Activity (Mus musculus [17]): Active; Activity (Mus musculus [15]): inactive; Activity (Mus musculus [16]): inactive
11 | CCOc1cc(OCC)cc(C(=O)OC[C@H]2O[C@H](O[C@H]3O[C@H](COC(=O)c4cc(OCC)cc(OCC)c4)[C@@H](O)[C@H](O)[C@H]3O)[C@H](O)[C@@H](O)[C@@H]2O)c1 | Active | Active | Active | Active | Active | – | – | – | –
12 | CC(C)(C)c1cc(C(=O)OC[C@H]2O[C@H](O[C@H]3O[C@H](COC(=O)c4cc(C(C)(C)C)cc(C(C)(C)C)c4)[C@@H](O)[C@H](O)[C@H]3O)[C@H](O)[C@@H](O)[C@@H]2O)cc(C(C)(C)C)c1 | – | – | – | – | – | Active | inactive | Active | –
